Tests used:
Toxicity test/peroral = settings: in vivo, po; Albino rat, peroral, evaluation after 7 days
Procedure: Test animal: Albino rat (Rattus norvegicus)
To produce a suitable preparation of active compound, 3 parts by weight of active compound were mixed with 2.8 parts by weight of highly-dispersible silica and 4.2 parts by weight of talc. Suspensions which contained, in 1 ml of liquid, the amount of active compound to be applied per 100 g of animal weight, were prepared from the above active-compound concentrate, with a little added powdered vegetable gum, by grinding with water. Dosing was effected volumetrically after weighing the test animals. A steel knob-ended probe was used for oral administration. The evaluation was carried out in each case after the end of the above-mentioned time interval, calculated from the administration of the active compound.
The LD50 values (dose of active compound at which 50% of the treated animals were killed) were determined in the usual manner from the mortality figures of the doses, which were varied in geometrical progression.
The active compounds and LD50 values can be seen from the table which follows: […]

Musca domestica = assay: LT100 test for Diptera; format: in vivo; settings: time for 100% destruction
Procedure: Test insects: Musca domestica
2 parts by weight of active compound were dissoled in 1,000 parts by volume of solvent. The solution so obtained was diluted with further solvent to the desired lower concentrations.
2.5 ml of the solution of active compound were pipetted into a Petri dish. On the bottom of the Petri dish there was a filter paper with a diameter of about 9.5 cm. The Petri dish remained uncovered until the solvent had completely evaporated. The amount of active compound per m^2 of filter paper varied with the concentration of the solution of active compound. About 25 test insects were then placed in the Petri dish and it was covered with a glass lid.
The condition of the test insects was continuously observed. The time which was necessary for 100% destruction was determined.
The test insects, the active compounds, the concentrations of the active compounds and the times at which there was 100% destruction can be seen from the following table: […]

[1] = test system: two-spotted spider mite (Tetranychus urticae); assay: Tetranychus test (resistant); format: in vivo; settings: 48 h, after 2 days, resistant Tetranychus urticae on bean plants, read-out: Degree of destruction in % after 2 days; for mortality at 0.01 %: active compound concentration 0.01 %; for mortality at 0.1 %: active compound concentration 0.1 %
Procedure: Tetranychus test (resistant)
Solvent: 3 parts by weight of acetone
Emulsifier: 1 part by weight of alkylaryl polyglycol ether
To produce a suitable preparation of active compound, 1 part by weight of the active compound was mixed with the stated amount of solvent containing the stated amount of emulsifier and the concentrate was diluted with water to the desired concentration.
These bean plants were heavily infested with the two-spotted spider mite (Tetranychus urticae) in all stages of development.
After the specified periods of time, the effectiveness of the preparation of active compound was determined by counting the dead mites. The degree of destruction thus obtained was expressed as a percentage: 100% means that all the spider mites were killed, whereas 0% means that none of the spider mites were killed.
The active compounds, the concentrations of the active compounds, the evaluation times and the results can be seen from the following table: […]

warm-blooded animals = settings: in words; known compounds; cited from earlier work
[2] = active compound concentration of the solution 0.02 %
[3] = active compound concentration of the solution 0.2 %

| SMILES | LD50 at 168 h (Toxicity test/peroral) [mg/kg] | LT100 in minutes (') (Musca domestica; [2]) [min] | LT100 in minutes (') (Musca domestica; [3]) [min] | mortality at 0.01 % [1] [%] | mortality at 0.1 % [1] [%] | toxicity to warm-blooded animals (warm-blooded animals) | LT100 in hours (Musca domestica; [2]) [h] |
| --- | --- | --- | --- | --- | --- | --- | --- |
| CCCSP(=S)(OCC)Oc1ccc(C)nn1 (stereo not drawn) [Compound 2] | ~50 |  |  |  |  |  |  |
| CCCSP(=S)(OCC)Oc1ccc(Cl)nn1 (stereo not drawn) [Compound 3] | 100 to 250 | 165 | 55 |  |  |  |  |
| CCCSP(=S)(OCC)Oc1ccc(Br)nn1 (stereo not drawn) [Compound 1, O-ethyl-S-n-propyl-O-[6-bromo-pyridazin(3)-yl]-thionothiolphosphoric acid ester] | 100 to 250 |  |  | 100 | 100 |  |  |
| CCOP(=S)(OCC)Oc1ccc(Cl)nn1 [Compound A, O,O-diethyl-O-[6-chloro-pyridazin-(3)-yl]-thionophosphoric acid ester] | ~5 |  |  |  |  | high toxicity to warm-blooded animals |  |
| CCOP(=S)(OCC)Oc1ccc(C)nn1 [Compound B, O,O-diethyl-O-[6-methyl-pyridazin-(3)-yl]-thionophosphoric acid ester] | 0.5 to 1 |  | 135 | 20 | 100 | high toxicity to warm-blooded animals | 8 |
